Source: article PMC9023544, “Ketone-selenoesters as potential anticancer and multidrug resistance modulation agents in 2D and 3D ovarian and breast cancer in vitro models” (Scientific Reports, 2022)

How the values were obtained:
[1] = tested on: MCF-7 (human breast adenocarcinoma); assay: Cytotoxic activity, 2D, resazurin, 72 h; assay type: cell-based; settings: for IC50: Homo sapiens, MCF7, 72 h, read-out: MCF-7 IC50; for SI HEK293/MCF-7: IC50 HEK293 / IC50 MCF-7
Protocol: (§1) The cytotoxic potential of selenoesters was tested on several cancer cell lines—HOC (human parental ovarian adenocarcinoma, HOC, A2780, Sigma-Aldrich), HOC/ADR (sub-line resistant to Adriamycin, A2780/ADR, Sigma-Aldrich), MCF-7 (human breast adenocarcinoma, ATCC®, HTB-22TM), MCF-7/PAX (resistant sub-line established by gradual adaptation of parental cells to increased concentration of paclitaxel; kindly provided by Division of Cell and Molecular Biology, Third Faculty of Medicine, Charles University, Czech Republic) and on one non-cancerous cell line—HEK293 (human embryonic kidney cell line, Leibniz Institute, DSMZ-German Collection of Microorganisms and Cell Cultures GmbH). All mentioned cell lines were authenticated using short tandem repeat (STR) profiling. Cell lines were cultivated in DMEM medium (10% FBS, 1× antibiotic antimycotic solution), except for HEK293 cell line which was cultivated without antibiotics. In case of the resistant cell lines, the medium was supplemented with a required concentration of cytostatics to maintain resistance (HOC/ADR—100 nM Adriamycin; MCF-7/PAX—300 nM paclitaxel). All cells were cultivated in a CO2 incubator (5% CO2, 37 °C, Thermo Fisher Scientific).
(§2) For the experiment, the cells at passage number 5–20 were seeded at a 1 × 10^5 cells/mL concentration into 96-well plates to 100 µL final volume. The final concentration range of the compounds was 0.63–20 µM. After an incubation of 72 h, the plates were washed 1× with PBS and resazurin solution (0.03 mg/mL in 1× PBS) was added. After 1 h of incubation, the fluorescence signal was recorded (ex./em. 560/590 nm).
(§3) The selectivity index (SI) was determined as the ratio of IC50 value for the non-cancerous cells to IC50 for the cancer cell line. For resistant cell lines, the collateral sensitivity (CS) was calculated as the ratio of IC50 value in sensitive tumour cells to IC50 in the resistant cancer cell line. In both cases, the selectivity is considered as: (1) strongly selective when SI or CS value is above 6, (2) moderately selective when SI or CS is between 3 and 6, (3) slightly selective when SI or CS is between 1 and 3 and (4) non-selective when SI or CS is less than 1[23].

[2] = tested on: HOC (human parental ovarian adenocarcinoma, A2780); assay: Cytotoxic activity, 2D, resazurin, 72 h; assay type: cell-based; settings: for IC50: Homo sapiens, A2780, 72 h, read-out: HOC IC50; for SI HEK293/HOC: IC50 HEK293 / IC50 HOC
Protocol: as §1, §2, §3

Row | Structure (SMILES) | IC50 [1] [nM] | SI HEK293/MCF-7 [1] | IC50 [2] [nM] | SI HEK293/HOC [2]
1 | CC(=O)C[Se]C(=O)c1ccc(Br)cc1 [K3] | 2000 ± 500 | 1.2 ± 0.3 | 1800 | 1.3 ± 0.0
2 | CC(=O)C[Se]C(=O)c1ccccc1C(F)(F)F [K4] | 1800 ± 100 | 2.9 ± 0.3 | 2200 ± 100 | 2.5 ± 0.2
3 | CC(=O)C[Se]C(=O)c1ccc(C(C)(C)C)cc1 [K7] | 1900 ± 100 | 0.8 ± 0.1 | 1100 ± 100 | 1.7 ± 0.2
